In paper PMC10726367 (Journal of Medicinal Chemistry, 2023):

Columns and labels:
SERCA2a = target: T1, SERCA2a (Mus musculus, UniProt O55143); test: Caffeine-induced Ca2+ release assay in HL-1 cells (FLIPR Calcium 6); format: cell-based; settings: HL-1 cells, 2 h incubation at various concentrations, 10 mM caffeine
T1 construct: host or cells: HL-1 cells
Source text: It is known that caffeine stimulates the release of calcium from intracellular stores in cells by acting as a RyR activator.[39],[40] The binding site for caffeine is located on the cytosolic side of the protein between the C-terminal and the S2S3 domain.[41] When caffeine binds to RyR2, it interacts with specific amino acids on the protein, which causes conformational changes in the protein’s structure.[42] This opens the RyR2 channel pore, enabling the mass release of calcium ions from the SR. We investigated the effect of caffeine-induced Ca^2+ release in HL-1 cells treated with cytosolic Ca^2+ indicator FLIPR Calcium 6 (Molecular Devices). The HL-1 cell line is an immortalized mouse cardiomyocyte cell line commonly used to study the effects of various substances on cell function.[43] If the tested compound modulates SERCA2a activation, it will cause an increase in Ca^2+ concentration in the SR and the effect of a fixed dose of caffeine on SR Ca^2+ release will be potentiated by increasing doses of a proposed SERCA activator.[26] As a positive control, we used CDN1163, a small-molecule SERCA activator, which is at present in a clinical trial due to its potential therapeutic use for certain cardiac conditions.[27]
HL-1 cells (50,000 per well) were cultivated for 24 h in black-walled, clear-bottom 96-well microplates (Corning, Amsterdam, The Netherlands) covered with fibronectin/gelatin (Merck KGaA, Darmstadt, Germany) in a humidified incubator at 37 °C and 5% CO2.
Changes in Ca^2+ concentration were measured on a multiwell plate reader TECAN Spark 20 M using a FLIPR 6 Calcium Assay Kit from Molecular Devices (Molecular Devices LLC, München, Germany) at 37 °C. The 1000 × stock solutions of the test compounds were prepared in DMSO. A 100 μL solution of test compound in Tyrode’s solution containing FLIPR Calcium 6 dye was incubated for 2 h at 37 °C and 5% CO2 in a humidified incubator. The time courses were recorded in each well. Fluorescence was evoked at 485 nm excitation wavelength and read out in a bottom-read mode at 525 nm. Data were recorded every 2 s, exposure −20 flashes, excitation bandwidth −10 nm, emission bandwidth −15 nm. To initiate Ca^2+ influx, 25 μL of 50 mM caffeine solution in Tyrode’s solution containing 2 mM CaCl2 was injected in each well (speed 100 μL/s) at the 10 s time point, resulting in 10 mM final concentration in the well. The differences between the caffeine-induced peak minus basal fluorescence, ΔFCaff, were taken into account for the analysis. The Tyrode’s solution +0.1 v/v% DMSO was used as a control. The dose–response curves were calculated using the software package GraphPad Prism version 8.3.1. All data are presented as mean ± SD from eight independent experiments. Y = bottom + (top – bottom)/(1 + 10^((LogEC50 – X) × HillSlope)) was used, where HillSlope describes the steepness of the curve and top and bottom are plateaus in the units of the Y axis.

[1] = CytoTox-Glo Cytotoxicity Assay; format: cell-based; settings: mouse; HL-1 cells, 100 μM solutions, 24 h incubation
Experimental: Cell viability was assessed using the CytoTox-Glo Cytotoxicity Assay according to the manufacturing procedure (Promega GmbH). Briefly, HL-1 cells were cultivated for 24 h in black-walled, clear-bottom 96-well microplates (Corning) covered with fibronectin in DMEM, containing different concentrations of the tested compound (10,000 cells/well). Luminescence of a luminogenic peptide substrate was measured before and after the addition of the lysis reagent (digitonin). The viable cell contribution was determined by a subtractive method. 0.1% DMSO-treated cells were taken as a control.

[2] = Membrane permeability, PermeaPad Plate (cell-free transport model); format: in vitro ADME; settings: for Pe: 24 h, room temperature; for Pe class (low/medium/high; poor): class word printed beside Pe, no key given
Experimental: Membrane permeability was assessed using PermeaPad Plate according to the manufacturing procedure (innoME GmbH, Espelkamp, Germany). Briefly, 200 μL of water was added into the acceptor plate. 200 μL of 100–500 μM test compound in water was added directly to the well membranes of the donor plate. The donor plate contains a biomimetic membrane for simulating passive mass transfer through different barriers in the body. Then, the donor plate was placed into the acceptor plate wells and incubated at room temperature for 24 h in the dark. To determine the peak absorbance of test compounds, absorbance spectra of acceptor solutions and initial solutions for each test compound were read out. The permeability rate (Pe) was calculated using the formula:
[drawing 1] , where ODA is the absorbance of acceptor solution and ODE is the absorbance of the standard solution; if the compound is able to permeabilize the membrane and fully reach equilibrium, 250 μM will be the final concentration of solution in the donor and acceptor wells. The coefficient C was calculated using the formula:
[drawing 2] , where VA is the acceptor volume (cm^3), VD is the donor volume (cm^3), the membrane area is 0.24 cm^2, and the time is 86,400 s.

RyR2 = target: T2, RyR2 (Mus musculus, UniProt E9Q401); test: Time-lapse [Ca2+]ER assay (RyR2 R-CEPIA1er assay) in HEK-293 cells with inducible WT RyR2; format: cell-based; settings: for effect on [Ca2+]ER / R-CEPIA1er fluorescence (F/F0): 25 μM, vs 0.1 v/v% DMSO
T2 construct: expressed in transfected cells; host or cells: HEK-293 cells stably expressing R-CEPIA1er with doxycycline-inducible WT RyR2
Source text: To assess the functional potency of novel agents for modulating RyR2 channel activity, we measured changes in Ca^2+ levels in ER of HEK-293 cells with inducible expression of wild-type RyR2 (WT RyR2).[33],[34] Because the expression of WT RyR2 introduces an additional spontaneous Ca^2+ leak from the ER, these cells are suitable for our purpose of testing potential RyR2 stabilizers.[35] The cells additionally stably express the Ca^2+ fluorescence indicator R-CEPIA1er, which is a genetically encoded sensor protein of Ca^2+ in the ER (the cell line was a gift from T. Murayama, Department of Pharmacology, Juntendo University School of Medicine, Tokyo, Japan).[36]
The addition of these compounds, which are known to inhibit excessive cardiac RyR2 activity, should reduce Ca^2+ leak from the ER, thus increasing the R-CEPIA1er fluorescence.
The fluorescence plate reader [Ca^2+]ER assay was performed according to the slightly modified protocol of Murayama and Kurebayashi.[36] […] After the cells were inducted with doxycycline for 24 h, changes in ER calcium concentrations [Ca^2+]ER were measured on a multiwell plate reader TECAN Spark 20 M at 37 °C. The 1000 × stock solutions of the test compounds were prepared in DMSO. Briefly, the culture medium was removed and 100 μL of Tyrode’s solution containing 2 mM CaCl2 was added to the cells. The time courses were recorded in each well. Fluorescence was evoked by a 560 nm excitation wavelength and collected in a bottom-read mode at 610 nm. Data was recorded every 10 s, exposure −20 flashes, excitation bandwidth −20 nm, emission bandwidth −20 nm. 100 μL of 0–100 μM solution of test compound in Tyrode’s solution containing 2 mM CaCl2 was injected in each well (speed 100 μL/s) at the 90 s time point. […] The 0.1 v/v% DMSO and 2 mM CaCl2 Tyrode’s solution was used as a control.
The dose–response curves were calculated using the software package GraphPad Prism version 8.3.1. (GraphPad Software, Inc.). All data are presented as mean ± SD in three independent experiments. Y = bottom + (top – bottom)/(1 + 10^((LogEC50 – X) × HillSlope)) was used, where HillSlope describes the steepness of the curve, and top and bottom are plateaus in the units of the Y-axis.

T2 sequence (E9Q401 whole entry): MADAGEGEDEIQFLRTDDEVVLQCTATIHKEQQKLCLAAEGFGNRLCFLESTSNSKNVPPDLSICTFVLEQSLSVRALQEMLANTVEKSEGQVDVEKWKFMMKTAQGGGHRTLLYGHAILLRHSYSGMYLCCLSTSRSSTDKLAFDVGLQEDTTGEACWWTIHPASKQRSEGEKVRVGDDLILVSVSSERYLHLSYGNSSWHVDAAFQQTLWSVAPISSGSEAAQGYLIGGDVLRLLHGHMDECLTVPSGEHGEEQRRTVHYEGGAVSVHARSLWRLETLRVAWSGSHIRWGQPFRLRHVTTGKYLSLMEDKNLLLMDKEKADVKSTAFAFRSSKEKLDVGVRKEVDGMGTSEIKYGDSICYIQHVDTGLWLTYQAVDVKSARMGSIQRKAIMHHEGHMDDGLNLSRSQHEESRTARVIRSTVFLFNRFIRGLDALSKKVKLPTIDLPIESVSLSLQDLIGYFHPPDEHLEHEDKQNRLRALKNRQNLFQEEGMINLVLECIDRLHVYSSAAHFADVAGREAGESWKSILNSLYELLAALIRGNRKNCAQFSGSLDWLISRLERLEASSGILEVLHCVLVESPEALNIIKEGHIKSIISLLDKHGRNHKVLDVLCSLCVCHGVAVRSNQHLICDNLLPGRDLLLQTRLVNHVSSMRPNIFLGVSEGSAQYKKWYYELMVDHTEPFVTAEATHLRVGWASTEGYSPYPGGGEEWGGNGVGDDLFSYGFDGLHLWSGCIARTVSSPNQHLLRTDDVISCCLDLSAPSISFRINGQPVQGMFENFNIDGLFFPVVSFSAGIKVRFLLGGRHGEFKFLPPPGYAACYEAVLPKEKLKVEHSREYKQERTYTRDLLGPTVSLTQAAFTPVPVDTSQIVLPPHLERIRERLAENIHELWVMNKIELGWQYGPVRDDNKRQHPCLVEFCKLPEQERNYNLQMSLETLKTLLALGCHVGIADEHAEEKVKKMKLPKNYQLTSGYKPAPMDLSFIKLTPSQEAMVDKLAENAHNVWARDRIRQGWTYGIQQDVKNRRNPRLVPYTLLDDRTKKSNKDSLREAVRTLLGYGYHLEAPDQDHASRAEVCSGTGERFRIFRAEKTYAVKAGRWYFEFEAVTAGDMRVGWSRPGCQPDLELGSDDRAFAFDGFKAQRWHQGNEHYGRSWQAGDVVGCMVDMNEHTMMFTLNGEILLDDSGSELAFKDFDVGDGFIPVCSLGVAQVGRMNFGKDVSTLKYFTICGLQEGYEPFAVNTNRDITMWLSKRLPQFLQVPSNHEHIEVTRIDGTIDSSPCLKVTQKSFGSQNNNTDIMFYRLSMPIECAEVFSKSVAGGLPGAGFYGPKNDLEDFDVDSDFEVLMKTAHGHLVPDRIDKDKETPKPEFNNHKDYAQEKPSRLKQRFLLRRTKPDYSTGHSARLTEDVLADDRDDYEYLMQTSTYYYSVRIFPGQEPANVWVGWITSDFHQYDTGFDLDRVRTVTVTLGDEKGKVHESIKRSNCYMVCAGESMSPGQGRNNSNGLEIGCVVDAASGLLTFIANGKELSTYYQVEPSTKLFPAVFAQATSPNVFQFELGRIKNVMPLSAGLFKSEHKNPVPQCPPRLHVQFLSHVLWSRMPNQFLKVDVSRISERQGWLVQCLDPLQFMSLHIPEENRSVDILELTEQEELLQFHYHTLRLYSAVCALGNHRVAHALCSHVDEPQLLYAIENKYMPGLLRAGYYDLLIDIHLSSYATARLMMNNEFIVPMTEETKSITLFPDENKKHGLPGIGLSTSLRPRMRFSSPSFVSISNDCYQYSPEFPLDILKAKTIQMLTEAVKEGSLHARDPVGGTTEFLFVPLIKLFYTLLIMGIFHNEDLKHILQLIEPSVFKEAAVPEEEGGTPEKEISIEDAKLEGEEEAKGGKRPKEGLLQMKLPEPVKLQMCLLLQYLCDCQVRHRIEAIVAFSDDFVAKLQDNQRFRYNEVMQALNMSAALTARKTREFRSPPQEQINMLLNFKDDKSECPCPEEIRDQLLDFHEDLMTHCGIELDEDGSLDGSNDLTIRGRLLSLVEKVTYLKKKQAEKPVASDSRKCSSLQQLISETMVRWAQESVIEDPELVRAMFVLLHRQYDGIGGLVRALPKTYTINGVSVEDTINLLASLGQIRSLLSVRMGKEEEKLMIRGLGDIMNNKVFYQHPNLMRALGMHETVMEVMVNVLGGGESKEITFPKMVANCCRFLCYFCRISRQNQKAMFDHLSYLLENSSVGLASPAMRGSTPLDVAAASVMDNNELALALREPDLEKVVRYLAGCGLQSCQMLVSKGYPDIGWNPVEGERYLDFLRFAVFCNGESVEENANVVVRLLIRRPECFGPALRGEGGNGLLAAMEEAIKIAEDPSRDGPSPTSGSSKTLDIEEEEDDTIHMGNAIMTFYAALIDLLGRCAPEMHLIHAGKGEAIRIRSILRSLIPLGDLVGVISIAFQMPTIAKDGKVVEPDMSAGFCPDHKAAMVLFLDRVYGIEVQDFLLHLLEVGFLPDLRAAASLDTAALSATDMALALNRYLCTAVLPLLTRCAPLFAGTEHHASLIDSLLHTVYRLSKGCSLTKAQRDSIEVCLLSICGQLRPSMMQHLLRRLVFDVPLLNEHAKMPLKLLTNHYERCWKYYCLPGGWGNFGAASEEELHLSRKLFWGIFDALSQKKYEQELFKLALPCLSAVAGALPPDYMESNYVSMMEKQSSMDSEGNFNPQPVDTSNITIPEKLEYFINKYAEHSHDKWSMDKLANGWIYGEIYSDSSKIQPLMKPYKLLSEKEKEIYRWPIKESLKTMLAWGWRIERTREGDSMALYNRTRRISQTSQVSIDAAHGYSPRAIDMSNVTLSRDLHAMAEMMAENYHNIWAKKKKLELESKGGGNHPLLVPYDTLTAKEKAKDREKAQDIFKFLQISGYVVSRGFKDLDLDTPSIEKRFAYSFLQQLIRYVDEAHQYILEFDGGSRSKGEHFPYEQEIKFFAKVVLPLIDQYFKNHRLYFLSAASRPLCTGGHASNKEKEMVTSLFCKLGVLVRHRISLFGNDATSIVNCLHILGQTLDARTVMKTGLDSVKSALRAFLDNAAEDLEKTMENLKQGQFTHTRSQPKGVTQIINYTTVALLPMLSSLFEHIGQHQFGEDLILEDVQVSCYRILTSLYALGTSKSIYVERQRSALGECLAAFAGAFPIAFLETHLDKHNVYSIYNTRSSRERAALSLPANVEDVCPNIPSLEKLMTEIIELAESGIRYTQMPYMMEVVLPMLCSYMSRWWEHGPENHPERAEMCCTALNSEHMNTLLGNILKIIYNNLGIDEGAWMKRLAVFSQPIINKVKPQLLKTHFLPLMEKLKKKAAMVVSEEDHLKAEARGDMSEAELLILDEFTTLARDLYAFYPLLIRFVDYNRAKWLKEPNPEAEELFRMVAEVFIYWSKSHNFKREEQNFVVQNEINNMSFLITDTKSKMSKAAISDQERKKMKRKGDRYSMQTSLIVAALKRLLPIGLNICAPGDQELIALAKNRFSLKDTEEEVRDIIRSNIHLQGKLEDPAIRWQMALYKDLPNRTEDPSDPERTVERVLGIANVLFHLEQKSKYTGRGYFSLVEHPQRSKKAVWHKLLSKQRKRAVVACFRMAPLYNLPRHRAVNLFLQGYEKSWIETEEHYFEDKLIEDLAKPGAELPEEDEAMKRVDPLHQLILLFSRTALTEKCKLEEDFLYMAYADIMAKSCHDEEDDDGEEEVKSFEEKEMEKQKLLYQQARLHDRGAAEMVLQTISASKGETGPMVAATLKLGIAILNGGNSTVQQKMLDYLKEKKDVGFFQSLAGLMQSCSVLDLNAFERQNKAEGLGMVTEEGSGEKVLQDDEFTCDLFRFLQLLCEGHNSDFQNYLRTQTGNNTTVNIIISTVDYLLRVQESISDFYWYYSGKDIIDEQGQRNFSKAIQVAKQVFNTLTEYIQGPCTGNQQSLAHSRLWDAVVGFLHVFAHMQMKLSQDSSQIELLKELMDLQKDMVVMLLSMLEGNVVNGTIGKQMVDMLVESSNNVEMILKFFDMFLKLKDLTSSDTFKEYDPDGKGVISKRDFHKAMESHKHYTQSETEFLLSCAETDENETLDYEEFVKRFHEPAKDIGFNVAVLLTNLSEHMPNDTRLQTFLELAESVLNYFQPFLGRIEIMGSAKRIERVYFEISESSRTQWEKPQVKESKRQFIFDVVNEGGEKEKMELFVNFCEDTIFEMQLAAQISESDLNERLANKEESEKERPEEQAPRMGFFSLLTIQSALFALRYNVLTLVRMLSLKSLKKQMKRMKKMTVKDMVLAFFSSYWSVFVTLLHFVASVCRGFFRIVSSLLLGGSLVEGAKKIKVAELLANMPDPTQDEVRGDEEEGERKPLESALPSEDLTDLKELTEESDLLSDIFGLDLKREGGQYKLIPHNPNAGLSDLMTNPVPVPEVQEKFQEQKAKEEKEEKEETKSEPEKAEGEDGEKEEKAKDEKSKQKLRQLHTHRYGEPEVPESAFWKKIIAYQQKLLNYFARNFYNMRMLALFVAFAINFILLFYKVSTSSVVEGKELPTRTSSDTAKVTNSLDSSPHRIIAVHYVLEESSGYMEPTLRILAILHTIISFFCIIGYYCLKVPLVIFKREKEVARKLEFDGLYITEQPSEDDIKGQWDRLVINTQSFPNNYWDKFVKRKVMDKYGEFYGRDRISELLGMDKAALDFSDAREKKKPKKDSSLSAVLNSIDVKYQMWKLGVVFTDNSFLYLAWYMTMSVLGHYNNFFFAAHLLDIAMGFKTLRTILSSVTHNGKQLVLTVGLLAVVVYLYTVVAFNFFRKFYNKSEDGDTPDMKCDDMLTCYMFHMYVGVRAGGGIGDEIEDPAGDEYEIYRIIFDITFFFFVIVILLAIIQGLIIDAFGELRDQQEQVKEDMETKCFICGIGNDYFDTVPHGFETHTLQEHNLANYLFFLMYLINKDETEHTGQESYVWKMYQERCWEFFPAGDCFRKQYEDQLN

Row | Pe [2] | Pe class (low/medium/high; poor) [2] | RyR2 effect class (RyR2; 25 μM (S107 1 mM per Figure 2), HEK-293 RyR2 R-CEPIA1er cells) | effect on [Ca2+]ER / R-CEPIA1er fluorescence (F/F0) (RyR2) | Compound | effect on caffeine-induced Ca2+ release (in words) (SERCA2a) | viability at 24 h, 100 μM [1] [%]
1 | – | – | – | – | Cc1ccc2cccc(NC(=O)c3ccc(OC(C)C)cc3)c2n1 [CDN1163, reference compound] | clear dependence of the magnitude of the caffeine effect from the concentration of CDN1163 | –
2 | 1.0 10^–6 cm/s | poor permeability and low | +++ | increase in R-CEPIA1er fluorescence | COc1ccc2c(c1)CN(C(=O)C(=O)O)CCS2 [S36, reference compound] | no concentration-dependent effect | 94
3 | 1.2 10^–6 cm/s | medium | – | – | COc1ccc2c(c1)CN(C)CCS2 [S107, 4-methyl-7-methoxy-2,3,4,5-tetrahydro-1,4-benzothiazepine, reference compound] | did not show any effects on SR Ca^2+ content | 98
4 | – | – | – | increase in R-CEPIA1er fluorescence | O=C1CN(/N=C/c2ccc(-c3ccc([N+](=O)[O-])cc3)o2)C(=O)N1 [dantrolene, reference compound] | – | –
